Measurements as given in patent US8134015B2, “Compound inhibiting in vivo phosphorous transport and medicine containing the same” (Kyowa Hakko Kirin Co., Ltd., priority 2003, dated 2012).
Where a name gives a salt, the structure may show the parent alone.

Target: T1, rat NaPi-2b (Rattus norvegicus, UniProt Q9JJ09)
T1 construct: expressed in transfected cells; host or cells: Xenopus oocytes injected with cRNA
T1 sequence (Q9JJ09 1-695): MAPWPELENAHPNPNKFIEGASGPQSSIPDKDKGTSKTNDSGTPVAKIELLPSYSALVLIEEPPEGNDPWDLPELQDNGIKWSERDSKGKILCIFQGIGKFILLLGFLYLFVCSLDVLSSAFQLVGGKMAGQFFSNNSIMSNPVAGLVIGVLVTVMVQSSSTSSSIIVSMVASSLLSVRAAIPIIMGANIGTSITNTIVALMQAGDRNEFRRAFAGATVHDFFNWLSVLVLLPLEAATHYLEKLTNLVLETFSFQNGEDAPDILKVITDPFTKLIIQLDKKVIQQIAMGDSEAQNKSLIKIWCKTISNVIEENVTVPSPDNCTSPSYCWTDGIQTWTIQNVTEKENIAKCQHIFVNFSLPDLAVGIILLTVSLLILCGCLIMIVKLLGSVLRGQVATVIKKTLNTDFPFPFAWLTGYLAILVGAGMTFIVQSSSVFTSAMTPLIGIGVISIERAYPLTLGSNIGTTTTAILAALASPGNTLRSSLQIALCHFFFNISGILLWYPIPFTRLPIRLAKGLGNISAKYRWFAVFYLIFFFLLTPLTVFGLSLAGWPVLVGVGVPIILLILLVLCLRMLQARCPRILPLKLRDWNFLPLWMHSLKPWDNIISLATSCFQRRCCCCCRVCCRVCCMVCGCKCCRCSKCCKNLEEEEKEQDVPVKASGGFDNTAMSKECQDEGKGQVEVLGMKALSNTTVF
Experiment: Sodium-dependent phosphate uptake of Xenopus oocytes which expressed NaPi-2b (32P)
Format: cell-based
Conditions: Xenopus oocytes expressing rat NaPi-2b, 32P radioactive phosphorus; read-out: IC50 (phosphate uptake inhibitory activity)
Summary of the method: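 Read-out is 32P phosphate uptake into Xenopus oocytes expressing rat intestinal NaPi-2b (cRNA injection, 2-day culture). Inhibition at 300 μM and 100 μM was derived from a single inhibition curve and given as percent.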

How did the IC50 turn out when COc1ccc(/C=N/NC(=O)c2cc(Br)ccc2NC(=O)c2ccc(CN(CC(C)O)CC(C)O)cc2)cc1 (centres unmarked) [Compound 722, 4-{[Bis-(2-hydroxy-propyl)-amino]-methyl}-N-[4-bromo-2-(4-methoxy-benzylidene-hydrazinocarbonyl)-phenyl]-benzamide] was run?
The IC50 was 12.8 µM.

For CCN(CCO)Cc1cccc(C(=O)Nc2ccc(Cl)cc2C(=O)N/N=C/c2ccc(OC)cc2)c1 [Compound 429, N-[4-Chloro-2-(4-methoxy-benzylidene-hydrazinocarbonyl)-phenyl]-3-{[ethyl-(2-hydroxy-ethyl)-amino]-methyl}-benzamide], which IC50 is on record?
The IC50 was 5.88 µM.

How did the IC50 turn out when Cc1ccc(/C=N/n2c(-c3cccc(CSc4nc[nH]n4)c3)nc3sc4c(c3c2=O)CCCC4)cc1 [Compound 647, 3-[(4-Methyl-benzylidene-)-amino]-2-[3-(1H-[1,2,4]triazol-3-ylsulfanylmethyl)-phenyl]-5,6,7,8-tetrahydro-3H-benzo[4,5]thieno[2,3-d]pyrimidin-4-one] was run?
The IC50 was 5.62 µM.

Which IC50 does the source give for Cc1ccc(/C=N/NC(=O)c2cc(Cl)ccc2NC(=O)c2cccc(CS(=O)(=O)Cc3ccco3)c2)cc1C [Compound 686, N-[4-Chloro-2-(3,4-dimethyl-benzylidene-hydrazinocarbonyl)-phenyl]-3-(furan-2-ylmethanesulfonylmethyl)-benzamide] here?
Its IC50 is less than 3 µM.

Cc1ccc(/C=N/NC(=O)c2cc(Cl)ccc2NC(=O)c2cccc(CSc3nnnn3CCN(C)C)c2)cc1C [Compound 466, N-[4-Chloro-2-(3,4-dimethyl-benzylidene-hydrazinocarbonyl)-phenyl]-3-[1-(2-dimethylamino-ethyl)-1H-tetrazol-5-ylsulfanylmethyl]-benzamide] was tested. Which IC50 did it give?
The IC50 was less than 3 µM.

Which IC50 does the source give for Cc1ccc(/C=N/NC(=O)c2c(C)csc2NC(=O)c2cccc(CN(CC(C)O)CC(C)O)c2)cc1C (centres unmarked) [Compound 587, 3-{[Bis-(2-hydroxy-propyl)-amino]-methyl}-N-[3-(3,4-dimethyl-benzylidene-hydrazinocarbonyl)-4-methyl-thiophen-2-yl]-benzamide] here?
Its IC50 is less than 3 µM.

Cc1ccc(/C=N/NC(=O)c2c(NC(=O)c3cccc(CN4CCC(CO)CC4)c3)sc3c2CCC3)cc1 [Compound 817, 3-(4-Hydroxymethyl-piperidin-1-ylmethyl)-N-[3-(4-methyl-benzylidene-hydrazinocarbonyl)-5,6-dihydro-4H-cyclopenta[b]thiophen-2-yl]-benzamide] was tested. Which IC50 did it give?
Its IC50 is 36.1 µM.

With CCN(CCO)Cc1cccc(C(=O)Nc2ccc(Cl)cc2C(=O)N/N=C/c2cccc(C)c2)c1 [Compound 424, N-[4-Chloro-2-(3-methyl-benzylidene-hydrazinocarbonyl)-phenyl]-3-{[ethyl-(2-hydroxy-ethyl)-amino]-methyl}-benzamide] as the compound, how does the IC50 read?
The IC50 was 1.79 µM.

With Cc1ccc(/C=N/NC(=O)c2cc(Br)ccc2NC(=O)c2ccccn2)cc1 [Compound 498, Pyridin-2-carboxylic acid [4-bromo-2-(4-methyl-benzylidene-hydrazinocarbonyl)-phenyl]-amide] as the compound, how does the IC50 read?
The IC50 was 0.6 µM.

With COc1ccc(/C=N/NC(=O)c2cc(F)ccc2NC(=O)c2cccc(CN(CC(C)O)CC(C)O)c2)cc1 (centres unmarked) [Compound 854, 3-{[Bis-(2-hydroxy-propyl)-amino]-methyl}-N-[4-fluoro-2-(4-methoxy-benzylidene-hydrazinocarbonyl)-phenyl]-benzamide; hydrochloride] as the compound, how does the IC50 read?
Its IC50 is 1.33 µM.

With CCN(CC)CCOc1ccc(NC(=O)c2cccc(CN(CC(C)O)CC(C)O)c2)c(C(=O)NN=Cc2ccc(C)c(C)c2)c1 (centres unmarked) [Compound 943, 3-{[Bis-(2-hydroxy-propyl)-amino]-methyl}-N-[4-(2-diethylamino-ethoxy)-2-(3,4-dimethyl-benzylidene-hydrazinocarbonyl)-phenyl]-benzamide] as the compound, how does the IC50 read?
The IC50 was 10.6 µM.

Which IC50 does the source give for COc1ccc(/C=N/NC(=O)c2c(NC(=O)c3cccc(CN4CCC(CO)CC4)c3)sc3c2CCCC3)cc1 [Compound 644, 3-(4-Hydroxymethyl-piperidin-1-ylmethyl)-N-[3-(4-methoxy-benzylidene-hydrazinocarbonyl)-4,5,6,7-tetrahydro-benzo-[b]thiophen-2-yl]-benzamide] here?
Its IC50 is 5.91 µM.

Cc1ccc(/C=N/NC(=O)c2ccsc2NC(=O)c2cccc(CN(CC(C)O)CC(C)O)c2)cc1 (centres unmarked) [Compound 671, 3-{[Bis-(2-hydroxy-propyl)-amino]-methyl}-N-[3-(4-methyl-benzylidene-hydrazinocarbonyl)-thiophen-2-yl]-benzamide] was tested. Which IC50 did it give?
The IC50 was less than 3 µM.

How did the IC50 turn out when Cc1ccc(/C=N/NC(=O)c2ccccc2NC(=O)c2ccccc2F)cc1 [Compound 40, 2-Fluoro-N-[2-(4-methyl-benzylidene-hydrazinocarbonyl)-phenyl]-benzamide] was run?
The IC50 was 2.03 µM.

For CCN(CC)CCN(C)Cc1cccc(C(=O)Nc2sccc2C(=O)N/N=C/c2ccc(C)c(C)c2)c1 [Compound 664, 3-{[(2-Diethylamino-ethyl)-methyl-amino]-methyl}-N-[3-(3,4-dimethyl-benzylidene-hydrazinocarbonyl)-thiophen-2-yl]-benzamide], which IC50 is on record?
Its IC50 is 15.1 µM.

How did the IC50 turn out when Cc1ccc(/C=N/NC(=O)c2c(C)csc2NC(=O)c2cccc(CN3CCN(CCO)CC3)c2)cc1C [Compound 575, N-[3-(3,4-Dimethyl-benzylidene-hydrazinocarbonyl)-4-methyl-thiophen-2-yl]-3-[4-(2-hydroxy-ethyl)-piperazin-1-ylmethyl]-benzamide] was run?
The IC50 was less than 3 µM.

How did the IC50 turn out when CCN(CC)CCN(C)Cc1cccc(C(=O)Nc2sccc2C(=O)N/N=C/c2ccc(F)cc2)c1 [Compound 666, 3-{[(2-Diethylamino-ethyl)-methyl-amino]-methyl}-N-[3-(4-fluoro-benzylidene-hydrazinocarbonyl)-thiophen-2-yl]-benzamide] was run?
The IC50 was 31.2 µM.

With COc1ccc(C(=O)Nc2scc(C)c2C(=O)N/N=C/c2cccc(C)c2)cc1OC [Compound 518, 3,4-Dimethoxy-N-[4-methyl-3-(3-methyl-benzylidene-hydrazinocarbonyl)-thiophen-2-yl]-benzamide] as the compound, how does the IC50 read?
Its IC50 is 1.52 µM.

O=C(Nc1ccc(N2CCCC2)cc1C(=O)N/N=C/c1ccc(Cl)c(C(F)(F)F)c1)c1cccc(CSCCO)c1 [Compound 920, N-[2-(4-Chloro-3-trifluoromethyl-benzylidene-hydrazinocarbonyl)-4-pyrrolidin-1-yl-phenyl]-3-(2-hydroxy-ethylsulfanylmethyl)-benzamide] was tested. Which IC50 did it give?
The IC50 was less than 1 µM.

With Cc1ccc(/C=N/NC(=O)c2cc(Br)ccc2NC(=O)c2ccc(C)cc2)cc1 [Compound 494, N-[4-Bromo-2-(4-methyl-benzylidene-hydrazinocarbonyl)-phenyl]-4-methyl-benzamide] as the compound, how does the IC50 read?
Its IC50 is 2.07 µM.

Same assay, conditions: phosphate uptake, oocytes expressing rat NaPi-2b; 300 μM, determined from inhibition curve

How did the inhibition at 300 µM turn out when COc1ccc(/C=N/NC(=O)c2ccsc2NC(=O)c2cccc(CN(CC(C)O)CC(C)O)c2)cc1 (centres unmarked) [Compound 780, 3-{[Bis-(2-hydroxy-propyl)-amino]-methyl}-N-[3-(4-methoxy-benzylidene-hydrazinocarbonyl)-thiophen-2-yl]-benzamide] was run?
Its inhibition at 300 µM is 47.7%.

How did the inhibition at 300 µM turn out when O=C(Nc1ccccc1C(=O)N/N=C/C=C/c1ccccc1)c1ccccc1 [Compound 235, N-[2-(3-Phenyl-allylidene-hydrazinocarbonyl)-phenyl]-benzamide] was run?
Its inhibition at 300 µM is 47.9%.

For Cc1ccc(CNNC(=O)c2cc(Br)ccc2NC(=O)c2ccccn2)cc1 [Compound 544, Pyridin-2-carboxylic acid {4-bromo-2-[N′-(4-methyl-benzyl)-hydrazinocarbonyl]-phenyl}-amide], which inhibition at 300 µM is on record?
Its inhibition at 300 µM is 60%.
